In assay [1] the target is T1, GST-FBP21 (a protein having WW domain) (Homo sapiens, UniProt O75554).
T1 construct: GST
T1 sequence (O75554 1-376): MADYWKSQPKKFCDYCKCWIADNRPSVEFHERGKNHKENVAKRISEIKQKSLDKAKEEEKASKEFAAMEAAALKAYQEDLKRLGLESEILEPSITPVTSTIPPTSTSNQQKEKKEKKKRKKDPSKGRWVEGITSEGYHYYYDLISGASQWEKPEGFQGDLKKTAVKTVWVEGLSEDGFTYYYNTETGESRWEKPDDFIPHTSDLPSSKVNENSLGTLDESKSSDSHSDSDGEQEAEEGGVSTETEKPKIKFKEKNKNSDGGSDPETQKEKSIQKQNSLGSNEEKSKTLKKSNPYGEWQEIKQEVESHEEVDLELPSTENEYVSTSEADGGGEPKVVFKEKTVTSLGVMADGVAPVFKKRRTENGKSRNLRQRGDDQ
Kind of assay: Peptide capture on streptavidin-agarose beads in filter plate, tryptic digestion, MALDI MS detection of bound GST-FBP21. Conditions: sample GST-FBP21; m/z 1138.7 or 1152.8; signal size of about 1000 or more indicates significant binding. How it is done:
(§1) To make the peptide array, the wells of a multiwell (i.e., 96-well filtration plate from Millipore having a pore size of 1.2 μm) filtration plate were first filled with a known volume of a suspension containing Streptavidin-linked agarose beads (Sigma). The biotinylated peptides were added (each in a separate well) and allowed to incubate with the avidin beads for a defined time interval following which vacuum (5-6 in. Hg) was applied to remove excess liquid. The immobilized peptides were then ready to be incubated with the protein mixture (e.g., a brain extract). After incubation, the peptide-protein complexes were washed in parallel, and subsequently subjected to enzymatic digestion (following in-gel digestion protocol). After digestion directly in the membrane plate, the digests were transferred to a MALDI plate for MS analysis, after concentration using a C18 resin-containing Millipore C18 ZIPTIP™ pipette tips.
(§2) In detail, 40 μL of streptavidin-agarose conjugate (Sigma S1638) was added to each well of a 96 well membrane filter plate washed with 200 μL of 1 mM TRIS HCl pH 7.5 (TRIS buffer) buffer using vacuum filtration. The beads were not allowed to dry out. The capture agents (e.g., biotinylated peptides, biotinylated antibodies, tagged proteins) were diluted with 1 mM TRIS HCl pH 7.5 buffer and 20 μL of each capture agent solution (at concentration of 1-2 mg/mL) was added to wells containing the avidin-agarose conjugate. The beads and capture agent were incubated for 1.5 to 2 hrs at room temperature using an orbital shaker (the plate was sealed during the incubation to avoid evaporation of the buffer). After incubation, excess solution was removed and the beads were washed with 200 μL of 1 mM TRIS HCl pH 7.5. A sample containing a protein of interest in TRIS buffer was added to the beads and the sample and beads were incubated overnight at room temperature using an orbital shaker (again using a sealed plate). The liquid was removed and the beads were washed using 200 μL of TRIS buffer. The capture agent-protein complexes, which are attached to the avidin-sepharose beads, were digested with 25 μL of trypsin in TRIS (concentration 20 μg/mL) at 45C for 45 min (again in a sealed plate). The 96 well plate containing the beads was placed in a manifold, and a vacuum was applied to collect each digest in a separate well of another 96-well plate. Using C18 ZIPTIP™ pipette tips (Millipore Corporation or equivalent) the digested peptides were extracted by prewashing the ZIPTIP™ with water/acetonitrile 1:1 then water containing 0.1% trifluoro-acetic acid, and then using the ZIPTIP™ pipette tips to capture the peptides from each well by moving each sample into and out of the tip at least 10 times, and wash the ZIPTIP™ pipette tip with water containing 0.1%TFA (trifluoroacetic acid). The peptides were eluted from the ZIPTIP™ pipette tip with MALDI matrix solution (e.g., 3-4 μL of HCCA at 0.5-1 mg/mL in actetonitrile/water or methanol/acetonitrile/water containing acetic acid) and spotted directly onto a MALDI sample plate.
The headers for each of the columns of Table 2 indicate, for each experiment, the peptide used as a capture agent. The first column of Table 2 indicates, for each experiment, the sample used. GST-CAP1, GST-FBP21, GST-14-3-3 are described above. “Brain extract” is a soluble protein extract of homogenized mouse brain, and, “QC” indicates the negative controls performed. […]

In assay [2] the test system is GST-CAP1 (a protein having PDZ domain). Kind of assay: Peptide capture on streptavidin-agarose beads in filter plate, tryptic digestion, MALDI MS detection of bound GST-CAP1. Conditions: sample GST-CAP1; m/z as printed in cell above (1358.8 or 1152.6); signal size of about 1000 or more indicates significant binding. How it is done:
as §1, §2
(§3) The headers for each of the columns of Table 2 indicate, for each experiment, the peptide used as a capture agent. The first column of Table 2 indicates, for each experiment, the sample used. GST-CAP1, GST-FBP21, GST-14-3-3 are described above. “Brain extract” is a soluble protein extract of homogenized mouse brain, and, “QC” indicates the negative controls performed. M/z values indicate mass-to-charge ratios, and numbers in brackets indicate the size of the signal obtained, indicating the amount of the analytes present. In general, a signal size of about 1000 or more indicates significant binding.

For assay [3], the system named is GST-14-3-3. Kind of assay: Peptide capture on streptavidin-agarose beads in filter plate, tryptic digestion, MALDI MS detection of bound GST-14-3-3. The class given is binding. Conditions: sample GST-14-3-3; for signal size (number in brackets) of MALDI MS signal: m/z1245.7, signal size of about 1000 or more indicates significant binding; for signal size (number in brackets) of second MALDI MS signal: m/z1255.9, for SmB the signal is […]. How it is done:
as §1, §2, §3

Assay [4] has as its target p60Src (Homo sapiens, UniProt P12931). As to the kind of experiment: SmB immobilized on avidin beads incubated with Src, digestion, MALDI MS (QC). It counts as binding.
Text: The following were used as targets: GST-CAP1 (a protein having PDZ domain), GST-FBP21 (a protein having WW domain), GST-14-3-3, p60Src (a protooncogene tyrosine protein kinase known not to bind to any of the peptides listed above), and a mouse brain protein extract. Four of the 8 target peptides are proline-rich peptides, which are identified as SmB, CDC25, LD10 and WBP1, and are known to bind SH3 domains.
as §1, with “After digestion directly in the membrane plate, the digests were transferred to a MALDI plate for MS analysis, after concentration using a C18 resin-containing Millipore C18 ZIPTIP™ pipette tips.” left out
Significant binding was detected between several capture agents and several probes.

The subject of assay [5] is mouse brain protein extract. Kind of assay: Peptide capture of proteins from brain extract, tryptic digestion, MALDI MS. The class given is binding. Conditions: for signal size of MALDI MS signal: sample brain extract (soluble protein extract of homogenized mouse brain), about 1000 or more indicates significant binding. How it is done: as §1
as §2, with “Using C18 ZIPTIP™ pipette tips (Millipore Corporation or equivalent) the digested peptides were extracted by prewashing the ZIPTIP™ with water/acetonitrile 1:1 then water containing 0.1% trifluoro-acetic acid, and then using the ZIPTIP™ pipette tips to capture the peptides from each well by moving each sample into and out of the tip at least 10 times, and wash the ZIPTIP™ pipette tip with water containing 0.1%TFA (trifluoroacetic acid). The peptides were eluted from the ZIPTIP™ pipette tip with MALDI matrix solution (e.g., 3-4 μL of HCCA at 0.5-1 mg/mL in actetonitrile/water or methanol/acetonitrile/water containing acetic acid) and spotted directly onto a MALDI sample plate.” left out

Assay [6] has as its target GST-14-3-3. Kind of assay: biotinylated peptide on streptavidin-agarose beads, pull-down, trypsin digest, MALDI-MS, ion m/z1245.7.
In assay [7] the target is GST-CAP1 (a protein having PDZ domain). As to the kind of experiment: biotinylated peptide on streptavidin-agarose beads, pull-down, trypsin digest, MALDI-MS, ion m/z1358.8.
Assay [8] concerns the target T2, GST-FBP21 (a protein having WW domain).
T2 sequence (O75554 whole entry, species assumed, looked up): T1 sequence (O75554 1-376)
Kind of assay: biotinylated peptide on streptavidin-agarose beads, pull-down, trypsin digest, MALDI-MS, ion m/z1138.7.

For assay [9] the target is unchanged. As to the kind of experiment: biotinylated peptide on streptavidin-agarose beads, pull-down, trypsin digest, MALDI-MS, ion m/z1152.8.

Non-standard residues stand in square brackets, D forms with d. No end group written: not given here. *: point of attachment. Biotin = O=C1N[C@H]2[C@H](CS[C@H]2CCCCC(=O)*)N1; pT = C[C@@H](OP(=O)(O)O)[C@H](N)C(=O)O; pS = N[C@@H](COP(=O)(O)O)C(=O)O Where only a bound is given, the exact number is not on record here.

Biotin-SGSGGAPPTPPPLPP [LD10]: the “signal size (number in brackets) of MALDI MS signal” value was “(15,000)” in [1], “(1,600)” in assay [2] and “(150)” in assay [3].

As to Biotin-PPGMRPPPPGMRRGPPPPGMRPPRP [SmB], the “binding of p60Src” value in assay [4] is on record as “did not significantly bind”. Further, the “binding of WD11 repeat protein (WDR11) from brain extract” value in [5] (brain extract, spectra matched to known WD11 repeat protein (Table 3)) is “binds only the SmB peptide”. The “signal size (number in brackets) of MALDI MS signal” value was 0 in [2] and “(0)” in assay [3]. Besides, the “signal size (number in brackets) of second MALDI MS signal” value in assay [3] was “(3,000) is”.

For the molecule Biotin-SGSGGTPPPPYTVG [WBP1], in assay [5], the “signal size of MALDI MS signal” value was less than 100. Besides, the results for the “signal size (number in brackets) of MALDI MS signal” value in [1], in assay [2] and in assay [3] were “(9,000)”, 0 and 0, respectively.

Turning to Biotin-SGSGVLIKRRST*EL-COOH [COXG], the “signal size of MALDI MS signal” value in assay [5] is less than 100. The “signal size (number in brackets) of MALDI MS signal” value in assay [1] is listed as “(30,000)”; in assay [2], 0; in assay [3], “(500)”.

Consider Biotin-SGSGEQPLT*PVTDL [CDC25], for which the “signal size (number in brackets) of MALDI MS signal” value in [1] is recorded as “(500)”; in assay [2], “(480)”; in [3], “(0)”. For the same molecule, the “signal size (number in brackets) of second MALDI MS signal” value in [3] is given as “(800)”.

Turning to Biotin-SGSGVLIKRRSTEL-OH [COXD], in assay [5], the “signal size of MALDI MS signal” value is listed as less than 50. The “signal size (number in brackets) of MALDI MS signal” value in assay [1] is “(200)”; in assay [2], “(1,100)”; in assay [3], “(3600)”.

B1: COXD biotinylated peptide (Biotin-…-COOH) (peptide)
peptide: Biotin-SGSGVLIKRRSTEL-OH
SMILES: CC[C@H](C)[C@H](NC(=O)[C@H](CC(C)C)NC(=O)[C@@H](NC(=O)CNC(=O)[C@H](CO)NC(=O)CNC(=O)[C@H](CO)NC(=O)CCCC[C@@H]1SC[C@@H]2NC(=O)N[C@@H]21)C(C)C)C(=O)N[C@@H](CCCCN)C(=O)N[C@@H](CCCNC(=N)N)C(=O)N[C@@H](CCCNC(=N)N)C(=O)N[C@@H](CO)C(=O)N[C@H](C(=O)N[C@@H](CCC(=O)O)C(=O)N[C@@H](CC(C)C)C(=O)O)[C@@H](C)O
On to B1, for which the signal size in assay [6] amounted to 3600; in [7], 1100; in assay [8], 200.

B2: COXG biotinylated phosphopeptide (Biotin-…*EL-COOH) (peptide)
peptide: Biotin-SGSGVLIKRRS[pT]EL-OH
SMILES: CC[C@H](C)[C@H](NC(=O)[C@H](CC(C)C)NC(=O)[C@@H](NC(=O)CNC(=O)[C@H](CO)NC(=O)CNC(=O)[C@H](CO)NC(=O)CCCC[C@@H]1SC[C@@H]2NC(=O)N[C@@H]21)C(C)C)C(=O)N[C@@H](CCCCN)C(=O)N[C@@H](CCCNC(=N)N)C(=O)N[C@@H](CCCNC(=N)N)C(=O)N[C@@H](CO)C(=O)N[C@H](C(=O)N[C@@H](CCC(=O)O)C(=O)N[C@@H](CC(C)C)C(=O)O)[C@@H](C)OP(=O)(O)O
With B2, the signal size was found to be 500 in assay [6] and 30000 in assay [8].

B3: Kir2.1* biotinylated phosphopeptide (Biotin-…*EI-COOH) (peptide)
peptide: Biotin-SGSGPRPLRRE[pS]EI-OH
SMILES: CC[C@H](C)[C@H](NC(=O)[C@H](CCC(=O)O)NC(=O)[C@H](COP(=O)(O)O)NC(=O)[C@H](CCC(=O)O)NC(=O)[C@H](CCCNC(=N)N)NC(=O)[C@H](CCCNC(=N)N)NC(=O)[C@H](CC(C)C)NC(=O)[C@@H]1CCCN1C(=O)[C@H](CCCNC(=N)N)NC(=O)[C@@H]1CCCN1C(=O)CNC(=O)[C@H](CO)NC(=O)CNC(=O)[C@H](CO)NC(=O)CCCC[C@@H]1SC[C@@H]2NC(=O)N[C@@H]21)C(=O)O
In the case of B3, the signal size in assay [6] and in assay [9] was 8000 each time.

In turn, Biotin-SGSGGTPPPPYTVG [WBP1 biotinylated peptide (Biotin-…)] displayed a signal size in assay [8] of 9000.

B4: Kir2.1 biotinylated peptide (Biotin-…-COOH) (peptide)
peptide: Biotin-SGSGPRPLRRESEI-OH
SMILES: CC[C@H](C)[C@H](NC(=O)[C@H](CCC(=O)O)NC(=O)[C@H](CO)NC(=O)[C@H](CCC(=O)O)NC(=O)[C@H](CCCNC(=N)N)NC(=O)[C@H](CCCNC(=N)N)NC(=O)[C@H](CC(C)C)NC(=O)[C@@H]1CCCN1C(=O)[C@H](CCCNC(=N)N)NC(=O)[C@@H]1CCCN1C(=O)CNC(=O)[C@H](CO)NC(=O)CNC(=O)[C@H](CO)NC(=O)CCCC[C@@H]1SC[C@@H]2NC(=O)N[C@@H]21)C(=O)O
On to B4, for which the signal size in [6] was 400; in [7] it was 250; in [9] it was 900.

As to Biotin-SGSGEQPL[pT]PVTDL [CDC25 biotinylated phosphopeptide (Biotin-…*PVTDL)], the signal size in assay [7] was 480; in assay [8], 500.

Source of the values: US20050178959A1, “Methods and compositions for assessing a sample by maldi mass spectrometry” (priority 2004, published 2005).
